The source of these data is patent US20100009970A1, “COMPOSITIONS AND METHODS FOR TREATMENT OF VIRAL DISEASES” (Combinatorx (Singapore) Pte. Ltd., priority 2008, published 2010).

Data set [1] relates to Huh7 cells expressing a subgenomic RNA replicon of Con1 (genotype 1b) sequence origin.
For data set [2], the system named is Huh7 parental cells.
A short description of data set [3]: in vitro. As to conditions: human.
For data set [4], the system named is Huh7 cells expressing a subgenomic RNA replicon of Con1 (genotype 1b) sequence origin. Put plainly: microbe, parasite or virus in culture. As to conditions: Hepatitis C virus.
Setting [5] is: GETYPE1B, Huh-7, 72 h, read-out: Max Effect @CC30 (inhibition).
The mark [6] stands for this setting: Huh-7, 48 h, read-out: Max Effect.
Where [7] appears, read: Huh-7, read-out: IC50 (uM) [SG].
The mark [8] stands for this setting: Huh-7, read-out: Max Effect@CC30 (inhibition).
Setting [9] is: Huh-7, read-out: Max effect @CC30 (%).
Where [10] appears, read: Huh-7, read-out: Max Effect @CC30 (inhibition).

Counter-ions that a name gives are not always drawn. Like-named read-outs stand apart in the source and are kept apart here.

As for `CNC1CCC(c2cccs2)c2ccccc21` (stereo not shown) [Sertraline B-ring 2-Thiophene], in data set [1], the “Max Effect@CC30 (inhibition)” value was 42%. The IC50 in data set [1] (read-out: IC50 (uM) [SG]) was 52.3 µM. For the same compound, in data set [2], the CC50 came out at 88.5 µM.

Turning to `CNC1CCC(c2ccccc2OC)c2ccccc21` (stereo not shown) [Sertraline B-Ring Ortho-Methoxy], in data set [1], the “Max Effect” value was found to be 24% and the “Synergy Score” value is reported as 0.81. Besides, in data set [2], the CC50 is > 22.3 µM.

With `CNC1CCC(c2cccc(OC)c2)c2ccccc21` (stereo not shown) [Sertraline B-ring m-Methoxy], the “Max Effect@CC30 (inhibition)” value in data set [1] turned out to be 27.70%. In addition, the CC50 in data set [2] is > 50 µM.

On to `CNC1CCC(c2ccccc2OC)c2ccccc21` (stereo not shown) [Sertraline B-ring Ortho Methoxy, 4-(2-methoxyphenyl)-N-methyl-1,2,3,4-tetrahydronaphthalen-1-amine], for which the CC50 was 58.6 µM in data set [3] (CC50 (uM)), 58.6 µM in data set [3] (CC50 (uM) [SG]) and > 50 µM in data set [2] (human).

Regarding `Cl.N[C@H]1CC[C@@H](c2ccc(Cl)c(Cl)c2)c2ccccc21` [(1S,4S)-Desmethyl Sertraline, Hydrochloride], in data set [1], 5.35 µM corresponded to half-maximal inhibition (IC50), the “Max Effect” value is 98%, the “Synergy Score” value is 2.14 and the “TI (CC50/IC50)” value was 1.247. In data set [2], the CC50 was 6.68 µM.

Consider `CN(C)[C@H]1CC[C@@H](c2ccc(Cl)c(Cl)c2)c2ccc(C(=O)NC3CC3)cc21` [N,N-Dimethyl Sertraline A-Ring Reverse Cyclopropane Carboxam] [(5S,8S)—N-cyclopropyl-5-(3,4-dichlorophenyl)-8-(dimethylamino)-5,6,7,8-tetrahydronaphthalene-2-carboxamide], for which the IC50 in data set [1] (read-out: IC50 (uM) [SG]) worked out at 8.63 µM. Further, the CC50 in data set [2] (human) was determined as 18.2 µM.

On to `N[C@@H]1CC[C@H](c2ccc(Cl)c(Cl)c2)c2ccccc21` [(1R,4R)-Desmethyl Sertraline, (1R,4R)-4-(3,4-dichlorophenyl)-1,2,3,4-tetrahydronaphthalen-1-amine], for which the values for the CC50 in data set [3] (CC50), in data set [3] (CC50 (uM)) and in data set [3] (CC50 (uM) [SG]) were > 8.83 µM, 8.1 µM and 8.1 µM, respectively. The Emax in data set [4] (setting [5]) is 0%; in data set [4] (setting [6]), 81%; in data set [4] (setting [8]), 0%. Besides, the IC50 in data set [4] (Huh-7, 48 h) is 7.32 µM; in data set [4] (Huh-7, 72 h) it was 8.7 µM; in data set [4] (setting [7]) it was 8.7 µM. In addition, the “Synergy Score” value in data set [1] is 0.57. In data set [1], the “TI (CC50/IC50)” value is >1.206.

In the case of `CN[C@H]1CC[C@@H](c2ccc(Cl)c(Cl)c2)c2ccc(CS(C)(=O)=O)cc21` [(1S,4S)-4-(3,4-dichlorophenyl)-N-methyl-7-(methylsulfonylmethyl)-1,2,3,4-tetrahydronaphthalen-1-amine], the CC50 stood at 13 µM in data set [3] (CC50 (uM)), 13 µM in data set [3] (CC50 (uM) [SG]) and 14.2 µM in data set [2] (human). For the same compound, the 50% inhibitory concentration (IC50) in data set [4] (Huh-7) amounted to 1.68 µM; in data set [4] (setting [7]) it was 1.68 µM; in data set [4] (Huh-7, read-out: SA IC50 (uM)) it was 1.68 µM; in data set [1] (read-out: IC50 (uM) [SG]), 2.33 µM. The IC90 in data set [4] (Huh-7) was found to be 7.89 µM. Moreover, the Emax in data set [4] (setting [8]) and in data set [4] (setting [9]) was 84.8% each time.

In data set [3] (CC50 (uM)), `CN[C@H]1CC[C@@H](c2ccc(Cl)c(Cl)c2)c2ccccc21` [Sertraline HCL, Sertraline HCl, reference compound] had a CC50 at 72 h of 11.8 ± 2.09 µM. Also, the CC50 was 11.7 ± 2.03 µM in data set [3] (CC50 (uM) [SG]) and 11.3 µM in data set [2] (human). Besides, the Emax turned out to be 62 ± 11.2% in data set [4] (setting [5]) and 62.6 ± 21.5% in data set [4] (setting [8]).

Turning to `CNCc1cc(S(N)(=O)=O)ccc1Oc1ccc(SC)c(C)c1` [Compound 48, 4-(3-methyl-4-(methylthio)phenoxy)-3-((methylamino)methyl)benzenesulfonamide], the CC50 was 39.6 µM in data set [3] (CC50 (uM)), 39.6 µM in data set [3] (CC50 (uM) [SG]) and > 50 µM in data set [2] (human). The IC50 stood at 2.33 µM in data set [4] (Huh-7); 2.33 µM in data set [4] (setting [7]); 2.33 µM in data set [4] (Huh-7, read-out: SA IC50 (uM)); 2.26 ± 0.11 µM in data set [1] (read-out: IC50 (uM) [SG]). For the same compound, the concentration for an effect of 90% (IC90) in data set [4] (Huh-7) came to 10 µM; in data set [1], 8.26 ± 2.49 µM. For the same compound, the Emax in data set [4] (setting [8]) and in data set [4] (setting [9]) was 95.5% throughout.

In the case of `CN[C@H]1CC[C@@H](c2ccc(Cl)c(Cl)c2)c2ccccc21.Cl` [(1R,4S) Sertraline Hydrochloride], in data set [1], the “Max Effect@CC30 (inhibition)” value is 90.8 ± 1.6%. Besides, the 90% effect level in data set [1] (Hydrochloride) (IC90) was put at 12.1 ± 0.83 µM. Further, the CC50 in data set [2] is 14.2 ± 0.16 µM.

With `CSc1ccc(Oc2ccc(Br)cc2CN(C)C)cc1C` [Compound 9, (5-bromo-2-(3-methyl-4-(methylthio)phenoxy)phenyl)-N,N-dimethylmethanamine], the CC50 in data set [3] (CC50 (uM) [SG]) was 54.8 µM; in data set [2] (human), > 50 µM. Also, the IC50 in data set [4] (setting [7]) is 14.5 µM. Besides, the Emax in data set [4] (setting [8]) was found to be 79%.

For `CN[C@H]1CC[C@@H](c2ccc(Cl)c(Cl)c2)c2ccccc21` [Sertraline (e.g., hydrochloride), Sertraline, reference compound], the CC50 at 48 h in data set [3] (CC50) came to 8.83 µM. Further, the Emax in data set [4] (setting [6]) worked out at 99%. In addition, the “Synergy Score” value in data set [1] was 2.76.

As for `CN(C)[C@H]1CC[C@@H](c2ccc(Cl)c(Cl)c2)c2ccc(C(N)=O)cc21` [(5S,8S)-5-(3,4-dichlorophenyl)-8-(dimethylamino)-5,6,7,8-tetrahydronaphthalene-2-carboxamide], the CC50 in data set [3] (CC50 (uM)) was 20.7 µM; in data set [3] (CC50 (uM) [SG]), 21.7 ± 1.44 µM; in data set [2] (human), 23.7 µM. Also, the concentration for half-maximal inhibition (IC50) in data set [4] (Huh-7) came out at 2.96 µM; in data set [4] (setting [7]), 2.62 ± 0.48 µM; in data set [1] (read-out: IC50 (uM) [SG]), 3.18 µM. The IC90 in data set [4] (Huh-7) is 8.77 ± 0.05 µM; in data set [1] it was 8.73 µM. Also, the Emax in data set [4] (setting [10]) came out at 94.8%; in data set [4] (setting [8]) it was 94.3 ± 0.7%.

As for `CN[C@H]1CC[C@H](c2ccc(Cl)c(Cl)c2)c2ccccc21.Cl` [(1S,4R) Sertraline Hydrochloride], the “Max Effect@CC30 (inhibition)” value in data set [1] was determined as 50 ± 17.4%. Moreover, the CC50 in data set [2] came to 7.51 ± 0.8 µM.

Turning to `CN[C@H]1CC[C@@H](c2ccc(Cl)c(Cl)c2)c2ccc(CO)cc21` [Sertraline A-Ring Ethanol, ((5S,8S)-5-(3,4-dichlorophenyl)-8-(methylamino)-5,6,7,8-tetrahydronaphthalen-2-yl)methanol], the figures for the CC50 in data set [3] (CC50), in data set [3] (CC50 (uM)) and in data set [3] (CC50 (uM) [SG]) were 11.1 µM, 14.2 ± 0.3 µM and 14.2 ± 0.3 µM, respectively. Moreover, the Emax in data set [4] (setting [5]) is 92 ± 5.6%; in data set [4] (setting [6]), 97%; in data set [4] (setting [8]), 92 ± 5.6%. Moreover, the concentration for an effect of 90% (IC90) came out at 11.3 ± 2.91 µM in data set [4] (Huh-7) and 11.3 ± 2.91 µM in data set [4] (Huh-7, 72 h). Also, the IC50 in data set [4] (Huh-7, 48 h) was 4.48 µM; in data set [4] (Huh-7, 72 h), 2.85 ± 1.21 µM; in data set [4] (setting [7]) it was 2.85 ± 1.21 µM. In addition, the “Synergy Score” value in data set [1] was found to be 1.46. In data set [1], the “TI (CC50/IC50)” value is reported as 2.472.

Turning to `CNC1CCC(c2ccc(Oc3ccccc3)cc2)c2ccccc21` (stereo not shown) [Sertraline B-ring para-Phenoxy, N-methyl-4-(4-phenoxyphenyl)-1,2,3,4-tetrahydronaphthalen-1-amine], the CC50 in data set [3] (CC50) was determined as 7.46 µM; in data set [3] (CC50 (uM)), 6.8 µM; in data set [3] (CC50 (uM) [SG]), 7.85 ± 1.48 µM. The Emax in data set [4] (setting [5]) is 65%; in data set [4] (setting [6]), 99%; in data set [4] (setting [8]), 81 ± 22.6%. Besides, the half-maximal inhibitory concentration (IC50) in data set [4] (Huh-7, 48 h) was found to be 3.75 µM; in data set [4] (Huh-7, 72 h), 5.15 µM; in data set [4] (setting [7]), 4.02 ± 1.6 µM. In data set [1], the “Synergy Score” value is on record as 0.38. Further, the “TI (CC50/IC50)” value in data set [1] worked out at 1.987.

In the case of `CN(C)[C@H]1CC[C@@H](c2ccc(Cl)c(Cl)c2)c2ccc(NS(C)(=O)=O)cc21` [Dimethyl Sertraline Reverse Sulfonamide, N-((5S,8S)-5-(3,4-dichlorophenyl)-8-(dimethylamino)-5,6,7,8-tetrahydronaphthalen-2-yl)methanesulfonamide], the CC50 in data set [3] (CC50) is > 13.4 µM; in data set [3] (CC50 (uM)), 16.5 µM; in data set [3] (CC50 (uM) [SG]) it was 16.5 µM. For the same compound, the values for the Emax in data set [4] (setting [5]), in data set [4] (setting [6]) and in data set [4] (setting [8]) were 70%, 44% and 70%, respectively. Moreover, the IC50 turned out to be 3.45 µM in data set [4] (Huh-7, 72 h) and 3.45 µM in data set [4] (setting [7]). In data set [1], the “Synergy Score” value is given as 1.22.

Turning to `CN[C@H]1CC[C@@H](c2ccc(Cl)c(Cl)c2)c2ccc(CN)cc21` [Sertraline A-Ring Methanamine, (1S,4S)-7-(aminomethyl)-4-(3,4-dichlorophenyl)-N-methyl-1,2,3,4-tetrahydronaphthalen-1-amine], the values for the CC50 in data set [3] (CC50 (uM)), in data set [3] (CC50 (uM) [SG]) and in data set [2] (human) were 3.7 µM, 3.7 µM and 3.68 µM, respectively. Besides, the half-maximal inhibitory concentration (IC50) was 1.6 µM in data set [4] (Huh-7); 1.59 µM in data set [4] (setting [7]); 1.59 µM in data set [4] (Huh-7, read-out: SA IC50 (uM)); 1.67 µM in data set [1] (read-out: IC50 (uM) [SG]). In data set [4] (Huh-7), this compound came in with a 90% effect concentration (IC90) of 3.28 µM. Also, the Emax in data set [4] (setting [10]), in data set [4] (setting [8]) and in data set [4] (setting [9]) was 85.9% each time.

As a reminder, the IC50 is the concentration at which inhibition is half-maximal. In general, IC90 refers to the concentration at which the effect reaches the 90% level. A lower IC90 goes with greater potency.
